How the values were obtained:
SW480 colon cancer cells = assay: Cell viability assay (CellTiter-Blue) in SW480 colon cancer cells; format: cell-based; conditions: Homo sapiens, 96 h, four days; for inhibition at 10 µM: given where EC50 >10 μM, read-out: percent inhibition at 10 μM; for EC50: CellTiter-Blue
How it was run: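 SW480 colon cancer cells (~2×10^3/well) exposed to 8-point 1:3 dilutions from 10 μM to 0.0045 μM for four days at 37 °C/5% CO2. Viability read by resazurin (CellTiter-Blue) fluorescence after ~3 h, Ex 560/Em 590 nm. EC50 from non-linear regression; percent inhibition at 10 μM given when EC50 >10 μM.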

[1] = test system: Primary human fibroblasts derived from IPF patients (LL29 cells) treated with TGF-β1; assay: Inhibition of the fibrotic process: αSMA staining in TGF-β1-treated primary human fibroblasts from IPF patients (LL29 cells); format: cell-based; conditions: Fibroblast, 96 h; for EC50: % αSMA-positive LL29 cells, TGF-β1 20 ng/mL, 4 days; for inhibition at 10 µM: given where EC50 >10 μM, αSMA, LL29 cells, TGF-β1, 4 days, read-out: percent inhibition at 10 μM
How it was run: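 LL29 IPF-patient fibroblasts in 1% FBS stimulated with TGF-β1 (20 ng/mL) and compound (10 μM–1.87 nM, 0.1% DMSO) for 4 days at 37 °C. SYTOX-positive cells excluded; % αSMA-positive cells imaged, normalized to TGF-β1/DMSO wells; EC50 by nonlinear regression, else % inhibition at 10 μM.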

EC50 (SW480 colon cancer cells) [µM]	SMILES	inhibition at 10 µM (SW480 colon cancer cells) [%]	EC50 [1] [µM]	inhibition at 10 µM [1] [%]
> 10	c1cncc(-c2cccc3[nH]c(-c4n[nH]c5ccc(-c6cncc(CN7CCCCC7)c6)cc45)cc23)c1 [Compound 99, 5-(5-(Piperidin-1-ylmethyl)pyridin-3-yl)-3-(4-(pyridin-3-yl)-1H-indol-2-yl)-1H-indazole]	6.5	> 10	
> 10	FC1(F)CCN(Cc2cncc(-c3ccc4[nH]nc(-c5cc6c(-c7cccnc7)cccc6[nH]5)c4c3)c2)C1 [Compound 110, 5-(5-((3,3-Difluoropyrrolidin-1-yl)methyl)pyridin-3-yl)-3-(4-(pyridin-3-yl)-1H-indol-2-yl)-1H-indazole]	20.3	9.98	
> 10	Cc1ccncc1-c1ccc2[nH]nc(-c3cc4c(-c5ccncc5)cccc4[nH]3)c2c1 [Compound 117, 5-(4-Methylpyridin-3-yl)-3-(4-(pyridin-4-yl)-1H-indol-2-yl)-1H-indazole]	20.9	> 10	17.7
0.528	CCNCc1cncc(-c2ccc3[nH]nc(-c4cc5c(-c6ccncc6)cccc5[nH]4)c3c2)c1 [Compound 118, N-((5-(3-(4-(Pyridin-4-yl)-1H-indol-2-yl)-1H-indazol-5-yl)pyridin-3-yl)methyl)ethanamine]		0.888	
> 10	c1cc(-c2ccncc2)c2cc(-c3n[nH]c4ccc(-c5ccncc5)cc34)[nH]c2c1 [Compound 130, 5-(Pyridin-4-yl)-3-(4-(pyridin-4-yl)-1H-indol-2-yl)-1H-indazole]	23.2	1.65	

The next lines start with the molecule.

SMILES	EC50 (SW480 colon cancer cells) [µM]	inhibition at 10 µM (SW480 colon cancer cells) [%]	EC50 [1] [µM]	inhibition at 10 µM [1] [%]
c1cncc(-c2cccc3[nH]c(-c4n[nH]c5ccc(-c6cncnc6)cc45)cc23)c1 [Compound 111, 3-(4-(Pyridin-3-yl)-1H-indol-2-yl)-5-(pyrimidin-5-yl)-1H-indazole]	9.67		0.857	
O=C(Cc1ccccc1)Nc1cncc(-c2ccc3[nH]nc(-c4cc5c(-c6ccncc6)cccc5[nH]4)c3c2)c1 [Compound 122, 2-Phenyl-N-(5-(3-(4-(pyridin-4-yl)-1H-indol-2-yl)-1H-indazol-5-yl)pyridin-3-yl)acetamide]	> 10	7.8	> 10	0
CN(C)Cc1cncc(-c2ccc3[nH]nc(-c4cc5c(-c6ccncc6)cccc5[nH]4)c3c2)c1 [Compound 125, N,N-dimethyl-1-(5-(3-(4-(Pyridin-4-yl)-1H-indol-2-yl)-1H-indazol-5-yl)pyridin-3-yl)methanamine]	0.412		1.25	
CCCC(=O)Nc1cncc(-c2ccc3[nH]nc(-c4cc5c(-c6ccncc6)cccc5[nH]4)c3c2)c1 [Compound 129, N-(5-(3-(4-(Pyridin-4-yl)-1H-indol-2-yl)-1H-indazol-5-yl)pyridin-3-yl) butyramide]	9.53		2.87	
O=C(Nc1cncc(-c2ccc3[nH]nc(-c4cc5c(-c6ccncc6)cccc5[nH]4)c3c2)c1)C1CC1 [Compound 132, N-(5-(3-(4-(Pyridin-4-yl)-1H-indol-2-yl)-1H-indazol-5-yl)pyridin-3-yl) cyclopropanecarboxamide]	0.462		0.076	
O=C(Nc1cncc(-c2ccc3[nH]nc(-c4cc5c(-c6ccncc6)cccc5[nH]4)c3c2)c1)C1CCCCC1 [Compound 135, N-(5-(3-(4-(Pyridin-4-yl)-1H-indol-2-yl)-1H-indazol-5-yl)pyridin-3-yl) cyclohexanecarboxamide]	> 10	12.2	> 10	10.7
c1ccc(-c2ccc3[nH]nc(-c4cc5c(-c6ccncc6)cccc5[nH]4)c3c2)nc1 [Compound 140, 5-(Pyridin-2-yl)-3-(4-(pyridin-4-yl)-1H-indol-2-yl)-1H-indazole]	> 10	37.8	1.26	
Nc1cncc(-c2ccc3[nH]nc(-c4cc5c(-c6ccccn6)cccc5[nH]4)c3c2)c1 [Compound 143, 5-(3-(4-(Pyridin-2-yl)-1H-indol-2-yl)-1H-indazol-5-yl)pyridin-3-amine]	0.748		0.082	
